Several values for one entry are separate records, joined by “and”; a condition that tells them apart may be missing. Equal values may be shown once. Inconclusive results and toxic doses are left out.
Tested on: P388 leukemia ip, CD2F1 mice, survival T/C
Assay: NCI In Vivo Anticancer Drug Screen. Data for tumor model P388 Leukemia (intraperitoneal) in CD2F1 (CDF1) mice
Conditions: endpoint: median survival time, higher = longer survival
Method in brief: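 Mice carrying the transplanted tumor received test compound or vehicle. Survival was recorded in each group, and the value is the treated-group measurement divided by that of the vehicle-treated control group.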

[1] = dose: 12.5 mg/kg/injection, schedule: Q01DX009 (ip), vehicle: saline with Tween-80
[2] = dose: 25.0 mg/kg/injection, schedule: Q01DX009 (ip), vehicle: saline with Tween-80
[3] = dose: 50.0 mg/kg/injection, schedule: Q01DX009 (ip), vehicle: saline with Tween-80
[4] = dose: 100.0 mg/kg/injection, schedule: Q01DX009 (ip), vehicle: saline with Tween-80
[5] = dose: 200.0 mg/kg/injection, schedule: Q01DX009 (ip), vehicle: saline with Tween-80
[6] = dose: 6.25 mg/kg/injection, schedule: Q01DX009 (ip), vehicle: saline with Tween-80
[7] = dose: 50.0 mg/kg/injection, schedule: Q01DX005 (ip), vehicle: Klucel (hydroxypropylcellulose) (HPC)
[8] = dose: 100.0 mg/kg/injection, schedule: Q01DX005 (ip), vehicle: Klucel (hydroxypropylcellulose) (HPC)
[9] = dose: 200.0 mg/kg/injection, schedule: Q01DX005 (ip), vehicle: Klucel (hydroxypropylcellulose) (HPC)
[10] = dose: 50.0 mg/kg/injection, schedule: Q01DX005 (ip), vehicle: saline with Tween-80
[11] = dose: 100.0 mg/kg/injection, schedule: Q01DX005 (ip), vehicle: saline with Tween-80
[12] = dose: 50.0 mg/kg/injection, schedule: Q01DX009 (ip), vehicle: saline
[13] = dose: 60.0 mg/kg/injection, schedule: Q01DX005 (ip), vehicle: saline with Tween-80
[14] = dose: 120.0 mg/kg/injection, schedule: Q01DX005 (ip), vehicle: saline with Tween-80
[15] = dose: 240.0 mg/kg/injection, schedule: Q01DX005 (ip), vehicle: saline with Tween-80
[16] = dose: 200.0 mg/kg/injection, schedule: Q01DX005 (ip), vehicle: saline with Tween-80
[17] = dose: 100.0 mg/kg/injection, schedule: Q01DX009 (ip), vehicle: saline
[18] = dose: 200.0 mg/kg/injection, schedule: Q01DX009 (ip), vehicle: saline

In the case of `CC1(C)OC2C(COC(=O)c3ccc([N+](=O)[O-])cc3)OC(NC(=O)N(CCCl)N=O)C2O1` (centres undefined), the T/C (dose: 0.09 mg/kg/injection, schedule: Q01DX009 (ip), vehicle: saline with Tween-80) is reported as 119 % of control, the T/C (dose: 0.19 mg/kg/injection, schedule: Q01DX009 (ip), vehicle: saline with Tween-80) is reported as 119 % of control and the T/C (dose: 0.39 mg/kg/injection, schedule: Q01DX009 (ip), vehicle: saline with Tween-80) is reported as 119 % of control. The T/C (dose: 1.56 mg/kg/injection, schedule: Q01DX009 (ip), vehicle: saline with Tween-80) was 153 % of control, the T/C (dose: 3.12 mg/kg/injection, schedule: Q01DX009 (ip), vehicle: saline with Tween-80) was 174 % of control and the T/C [1] was 202 % of control. For the same compound, the T/C [2] was 272 % of control, the T/C [3] was 282 % of control and the T/C [4] was 154 % of control. For the same compound, the T/C [5] was 109 % of control.

For `CCCCOc1cc(C(=O)NCCN(CC)CC)c2ccccc2n1`, the T/C [6] was 100 % of control, the T/C [1] was 113 % of control and the T/C [2] was 100 % of control.

In the case of `CC(=O)OCCC/C(=C\c1c2ccccc2cc2ccccc12)[N+](=O)[O-]`, the T/C (dose: 60.0 mg/kg/injection, schedule: Q01DX005 (ip), vehicle: suspension in saline) is reported as 100 % of control, the T/C (dose: 120.0 mg/kg/injection, schedule: Q01DX005 (ip), vehicle: suspension in saline) is reported as 102 % of control and the T/C (dose: 240.0 mg/kg/injection, schedule: Q01DX005 (ip), vehicle: suspension in saline) is reported as 97 % of control.

In the case of `Brc1ccc(COC2C[C@]34CC=CC[C@@]3(C2)O4)cc1` (some centres undefined), the T/C [7] is reported as 105 % of control, the T/C [8] is reported as 103 % of control and the T/C [9] is reported as 105 % of control.

For `CNC(=O)Oc1ccc2c(c1)[C@]1(C)CCN(C)[C@@H]1N2C`, the T/C (dose: 0.05 mg/kg/injection, schedule: Q01DX005 (ip), vehicle: saline with Tween-80) was 98 % of control, the T/C (dose: 0.05 mg/kg/injection, schedule: Q01DX009 (ip), vehicle: saline) was 102 % of control and the T/C (dose: 0.1 mg/kg/injection, schedule: Q01DX005 (ip), vehicle: saline with Tween-80) was 99 % of control. For the same compound, the T/C (dose: 0.1 mg/kg/injection, schedule: Q01DX009 (ip), vehicle: saline) was 101 % of control, the T/C (dose: 0.2 mg/kg/injection, schedule: Q01DX005 (ip), vehicle: saline with Tween-80) was 99 % of control and the T/C (dose: 0.2 mg/kg/injection, schedule: Q01DX009 (ip), vehicle: saline) was 97 % of control. The T/C (dose: 0.4 mg/kg/injection, schedule: Q01DX005 (ip), vehicle: saline with Tween-80) was 93 % of control and the T/C (dose: 0.4 mg/kg/injection, schedule: Q01DX009 (ip), vehicle: saline) was 111 % of control.

For `Nc1ccccc1N=Cc1c(O)c2ccccc2oc1=O`, the T/C [10] was 93 % of control and the T/C [11] was 98 % of control.

In the case of `CCOCCOCCOC12C(=O)C(Cl)=C(Cl)C(=O)C13C1CC2C(Cl)C13` (centres undefined), the T/C (dose: 12.5 mg/kg/injection, schedule: Q01DX009 (ip), vehicle: saline) is reported as 98 % of control, the T/C (dose: 25.0 mg/kg/injection, schedule: Q01DX009 (ip), vehicle: saline) is reported as 105 % of control and the T/C [12] is reported as 105 % of control and 106 % of control.

`C#CC(C)(O)C(O)c1ccccc1` (centres undefined) was tested, and the T/C [3] was 98 % of control, the T/C [4] was 109 % of control and the T/C [5] was 96 % of control.

`Nc1nc2n(O)cc(-c3ccccc3)nc-2c(=O)n1` was tested, and the T/C (dose: 10.0 mg/kg/injection, schedule: Q01DX009 (ip), vehicle: saline with Tween-80) was 89 % of control, the T/C (dose: 20.0 mg/kg/injection, schedule: Q01DX009 (ip), vehicle: saline with Tween-80) was 101 % of control and the T/C (dose: 40.0 mg/kg/injection, schedule: Q01DX009 (ip), vehicle: saline with Tween-80) was 92 % of control.

In the case of `CC1=N/C(=C\c2ccccc2Br)C(=O)O1`, the T/C (dose: 50.0 mg/kg/injection, schedule: Q01DX005 (ip), vehicle: saline) is reported as 114 % of control, the T/C (dose: 100.0 mg/kg/injection, schedule: Q01DX005 (ip), vehicle: saline) is reported as 119 % of control and the T/C (dose: 200.0 mg/kg/injection, schedule: Q01DX005 (ip), vehicle: saline) is reported as 119 % of control.

With `OCC1C=CCC1` (centres undefined) the T/C [6] was 99 % of control, the T/C [1] was 101 % of control and the T/C [2] was 90 % of control.

`CCCCCCOC(=O)c1ccccc1NC(=O)NN1CCCCCC1` was tested, and the T/C [7] was 100 % of control, the T/C [8] was 102 % of control and the T/C [9] was 100 % of control.

In the case of `O=C(Cc1ccc(-c2ccccc2)cc1)Nc1ccccn1`, the T/C [3] is reported as 99 % of control, the T/C [4] is reported as 108 % of control and the T/C [5] is reported as 105 % of control.

For `CCOC(=O)C1=C(C(=O)c2ccc(OC)cc2)C(c2ccc([N+](=O)[O-])cc2)C(C(=O)c2ccc(OC)cc2)=C(C(=O)OCC)N1`, the T/C [13] was 89 % of control, the T/C [14] was 89 % of control and the T/C [15] was 93 % of control.

With `CC1(C)CCC[C@]2(C)[C@@H](C=O)C(C=O)=CC[C@@H]12` the T/C (dose: 3.12 mg/kg/injection, schedule: Q01DX005 (ip), vehicle: Klucel (hydroxypropylcellulose) (HPC)) was 102 % of control, the T/C (dose: 6.25 mg/kg/injection, schedule: Q01DX005 (ip), vehicle: Klucel (hydroxypropylcellulose) (HPC)) was 103 % of control and the T/C (dose: 12.5 mg/kg/injection, schedule: Q01DX005 (ip), vehicle: Klucel (hydroxypropylcellulose) (HPC)) was 106 % of control.

For `Cn1c2ccccc2c2nnc(-n3nc(-c4ccc(Br)cc4)cc3N)nc21`, the T/C (dose: 12.5 mg/kg/injection, schedule: Q01DX005 (ip), vehicle: saline with Tween-80) was 98 % of control, the T/C (dose: 25.0 mg/kg/injection, schedule: Q01DX005 (ip), vehicle: saline with Tween-80) was 87 % of control and the T/C [11] was 93 % of control. The T/C [16] was 95 % of control.

For `CON1C(=O)C(c2ccccc2)c2ccccc21` (centres undefined), the T/C [13] was 106 % of control, the T/C [14] was 96 % of control and the T/C [15] was 96 % of control.

`C/C(=C\CCCC(/C=C/C=C/CCCCOCc1ccccc1)O[Si](C)(C)C(C)(C)C)CO` (centres undefined) was tested, and the T/C [10] was 102 % of control, the T/C [11] was 101 % of control and the T/C [16] was 99 % of control.

In the case of `COCc1cccc2ccnc(C)c12`, the T/C (dose: 100.0 mg/kg/injection, schedule: Q01DX001 (ip), vehicle: saline with Tween-80) is reported as 104 % of control, the T/C (dose: 200.0 mg/kg/injection, schedule: Q01DX001 (ip), vehicle: saline with Tween-80) is reported as 108 % of control and the T/C (dose: 400.0 mg/kg/injection, schedule: Q01DX001 (ip), vehicle: saline with Tween-80) is reported as 107 % of control.

With `O=C(Nc1ccc(Cl)c(Cl)c1)Oc1ccccc1Cl` the T/C [13] was 106 % of control, the T/C [14] was 107 % of control and the T/C [15] was 105 % of control.

For `O=C(Nc1ccc([N+](=O)[O-])cc1)c1c2ccccc2nc2ccccc12`, the T/C (dose: 50.0 mg/kg/injection, schedule: Q01DX005 (ip), vehicle: suspension in saline) was 92 % of control, the T/C (dose: 100.0 mg/kg/injection, schedule: Q01DX005 (ip), vehicle: suspension in saline) was 100 % of control and the T/C (dose: 200.0 mg/kg/injection, schedule: Q01DX005 (ip), vehicle: suspension in saline) was 104 % of control.

`O=NNc1ccc(S(=O)(=O)c2ccc(NN=O)cc2)cc1` was tested, and the T/C (dose: 3.12 mg/kg/injection, schedule: Q01DX009 (ip), vehicle: water) was 91 % of control, the T/C (dose: 6.25 mg/kg/injection, schedule: Q01DX009 (ip), vehicle: water) was 110 % of control and the T/C (dose: 12.5 mg/kg/injection, schedule: Q01DX009 (ip), vehicle: water) was 119 % of control. The T/C (dose: 25.0 mg/kg/injection, schedule: Q01DX009 (ip), vehicle: water) was 116 % of control, the T/C (dose: 37.5 mg/kg/injection, schedule: Q01DX009 (ip), vehicle: water) was 122 % of control and the T/C (dose: 50.0 mg/kg/injection, schedule: Q01DX009 (ip), vehicle: water) was 119 % of control. The T/C (dose: 75.0 mg/kg/injection, schedule: Q01DX009 (ip), vehicle: water) was 113 % of control.

`Nc1nc2ccccc2c2c1C(=O)NC2=O` was tested, and the T/C [3] was 104 % of control, the T/C [4] was 86 % of control and the T/C [5] was 90 % of control.

`CC(C)(C)c1ccc2c(c1)C(O)(c1ccccc1)C1OC1(C(C)(C)C)C2=O` (centres undefined) was tested, and the T/C [12] was 106 % of control, the T/C [17] was 100 % of control and the T/C [18] was 91 % of control.

In the case of `COc1ccc(C2CC(=O)N(c3nccc(C)n3)C(=O)C2)cc1`, the T/C (dose: 100.0 mg/kg/injection, schedule: Q04DX003 (ip), vehicle: saline) is reported as 98 % of control, the T/C (dose: 200.0 mg/kg/injection, schedule: Q04DX003 (ip), vehicle: saline) is reported as 99 % of control and the T/C (dose: 400.0 mg/kg/injection, schedule: Q04DX003 (ip), vehicle: saline) is reported as 94 % of control.

In the case of `N#C/C(=C\C=C\c1ccccc1)c1nc(-c2ccc(Cl)cc2)cs1`, the T/C [12] is reported as 91 % of control, the T/C [17] is reported as 91 % of control and the T/C [18] is reported as 88 % of control.
